Measurements reported in publication PMC9147171, “Pharmacokinetic/Pharmacodynamic Evaluation of a New Purine-2,6-Dione Derivative in Rodents with Experimental Autoimmune Diseases” (Pharmaceutics, 2022).

Columns and labels:
[1] = Pharmacokinetic study in rats, single IP dose, serum; type: in vivo; settings: female, Lewis, rat
Procedure: Female Lewis rats and female C57BL/6 mice were administered IP with compound 34 dissolved in vehicle at a dose of 20 and 50 mg·kg^−1, respectively. Rats and mice were sacrificed at different time points (n = 3 per time point) following compound administration by decapitation under deep anesthesia. Thereafter, blood samples were harvested and allowed to clot at room temperature for 20 min and serum was separated by centrifugation at 3000 rpm for 10 min (EBA 12 R, Hettich, Germany). The obtained serum samples were stored at −80 °C until analysis.
Concentrations of compound 34 in rat and murine serum were quantified by an HPLC/UV method. To isolate the investigated compound, 100 μL of serum containing compound 34 or the same volume of blank serum spiked with a standard solution of compound 34, 10 μL of 4-(8-((furan-2-ylmethyl)amino)-1,3-dimethyl-2,6-dioxo-2,3,6,7-tetrahydro-1H-purin-7-yl)-N’-(2-hydroxybenzylidene)butanehydrazide methanol solution was used as an internal standard (IS) at a concentration of 80 μg·mL^−1, and 50 μL of 0.2 M NaOH solution was added. Subsequently, 1 mL of ethyl acetate was added to each sample and extraction was performed for 20 min on a VXR Vibrax shaker (IKA, Germany). Then, the samples were centrifuged (10,000× g, 5 min) on EBA 12 R centrifuge (Hettich, Germany) and the organic layers were collected and transferred to clean tubes. Subsequently, the organic layers were evaporated under a mild stream of nitrogen at 37 °C and the residues were dissolved in 100 μL of mobile phase and subjected to an HPLC analysis. The HPLC system (LaChrom Elite, Merck-Hitachi, Germany) consisted of L-2420 UV-VIS detector, an L-2200 autosampler, and an L-2130 pump. EZChrome Elite v. 3.2 (Merck-Hitachi, Germany) software was used for data acquisition and integration. The analysis was performed at ambient temperature on a LiChrospher 100 RP-18 column (250 × 4 mm) and a LiChroCART (4 × 4 mm) pre-column (Merck, Germany). The mobile phase was composed of acetonitrile mixed with 20 mM KH2PO4 water solution (pH = 4.5) at the ratio of 40:60 (v/v). A flow rate was 1 mL·min^−1 and analytical wavelength was set at 302 nm. The retention times of compound 34 and IS were approximately 6.3 min and 10.6 min. The method was validated according to the FDA Bioanalytical Method Validation Guidance for Industry (2018). The calibration curves constructed by plotting the peak area of the studied compound to the peak area of the IS vs. compound concentrations were linear in the tested concentration range, i.e., from 0.05–10 mg·L^−1 (r > 0.998). The limit of quantification was 0.05 mg·L^−1. […] The assay presented acceptable intra- and inter-assay precision and accuracy (i.e., they were within 15% of the CV and 15% of the nominal concentration, respectively) for all quality control concentrations (0.1, 1, and 5 mg·L^−1). The mean extraction efficiencies of the analyzed compound and the IS were above 80%.
Pharmacokinetics of compound 34 were investigated in rats and mice following single IP administration. One- and two-compartment models with first-order absorption and linear elimination were tested, but only the one-compartment model appropriately described the concentration-time courses of compound 34 in both rat and murine serum. […] The equations of the model are as follows:(1) dA/dt=−ka×A;A0=D×F, (2) Vd×dCp/dt=ka×A−CLT×Cp; Cp0=0 where A is the amount of the drug at the absorption site, ka is the first-order rate constant of drug absorption, D is the dose, F is the bioavailability, Vd is the volume of distribution, CLT is the total clearance, and Cp is the serum concentration of compound 34.

[2] = system: MOG35–55-induced EAE in mice; experiment: MOG35-55-induced experimental autoimmune encephalomyelitis (EAE) in mice, PK/PD EAE progression model; type: in vivo, female C57BL/6 mice
Procedure: Female C57BL/6 mice were immunized by subcutaneous injection of MOG35–55 peptide emulsified in complete Freund’s adjuvant and IP administration of pertussis toxin solution in PBS (Hooke Laboratories, Inc., Lawrence, MA, USA). Mice developed EAE 8–14 days after immunization and on day 14 they were randomly divided into two groups. The study group (n = 6) was administered with compound 34 solution at an IP dose of 50 mg·kg^−1 once daily for 15 days, whereas the control group (n = 6) received vehicle alone. To follow the progress of the disease, clinical score (CS) (scale 0–5), including “in-between” scores (i.e., 0.5, 1.5, 2.5, 3.5, and 4.5), and body weight of mice were evaluated according to the protocol provided by Hooke Laboratories, Inc.. Using the Mann–Whitney U test, it was verified that there is no significant difference in CS between the groups on the day of randomization. […]
The model assumes that some time is required for the compound to distribute from the serum to the site of action before it interacts with a biological target and exerts the pharmacological effect. […] The progression of disease, which was measured by CS, is stimulated by the sum of the signals from 20th and 38th transit compartments that allows us to capture the onset of the disease, the temporary remission, and the relapse of the disease that is a characteristic feature of this animal model of MS [30]. […]

[3] = system: PDE4B; settings: read-out: IC50 (µM) Against PDE Isoform PDE4B; cited from earlier work
[4] = system: PDE7A; settings: read-out: IC50 (µM) Against PDE Isoform PDE7A; cited from earlier work
[5] = system: LPS-induced endotoxemia in rats; parameters: method as in PMID 29407965; settings: single IP dose of 50 mg·kg^−1, at 1.5 h post-LPS dosing; cited from earlier work

absorption half-life ([1]; serum, 20 mg·kg^−1, IP, suspension in 10% methylcellulose): 1.2 min
Vd/F ([1]; single IP dose 20 mg·kg^−1, serum, one-compartment model, read-out: Vd/F Apparent volume of distribution, Final Estimate (CV%)): 8.7 L/kg
AUC ([1]; single IP dose 20 mg·kg^−1, serum, read-out: AUC Area under the concentration-time curve, Final Estimate (CV%) (converted)): 752 ng·h/mL
CL/F ([1]; single IP dose 20 mg·kg^−1, serum, read-out: CLT/F Apparent clearance, Final Estimate (CV%)): 440 mL/min/kg
Cmax ([1]; single IP dose 20 mg·kg^−1, serum, read-out: Cmax Maximum serum concentration, Final Estimate (CV%)): 1820 ng/mL
half-life ([1]; single IP dose 20 mg·kg^−1, serum, read-out: t0.5 Elimination half-life, Final Estimate (CV%)): 13.6 min
IC50 at 50 mg/kg ([2]; Mus musculus, ip, 50 mg·kg^−1 IP once daily for 15 days from day 14, clinical score, PK/PD model estimate, read-out: IC50_CS Compound 34 concentration resulting in 50% inhibition of disease progression, Estimate (CV%)): 7 ng/mL
Structure (SMILES): Cn1c(=O)c2c(nc(NCCc3ccccc3)n2CCCC(=O)NN=Cc2ccc(O)c(O)c2O)n(C)c1=O [Compound 34, 4-(1,3-dimethyl-2,6-dioxo-8-(phenethylamino)-2,3,6,7-tetrahydro-1H-purin-7-yl)-N′-(2,3,4-trihydroxybenzylidene)butanehydrazide]
mean relative body weight, experimental vs control group ([2]; 50 mg·kg^−1 IP once daily for 15 days): not significantly different
IC50 [3]: 1.4 µM
IC50 [4]: 3.2 µM
reduction of maximum plasma TNFα concentrations [5]: 84%
